The source of these data is PMC9066185 (RSC Advances, 2019).

This test concerns the target xanthine oxidase from cow's milk (XO) (Bos taurus, UniProt P80457). The test is described as follows: uric acid formation at […] nm. It is filed as biochemical.

Chain of xanthine oxidase from cow's milk (XO) (P80457 2-1332): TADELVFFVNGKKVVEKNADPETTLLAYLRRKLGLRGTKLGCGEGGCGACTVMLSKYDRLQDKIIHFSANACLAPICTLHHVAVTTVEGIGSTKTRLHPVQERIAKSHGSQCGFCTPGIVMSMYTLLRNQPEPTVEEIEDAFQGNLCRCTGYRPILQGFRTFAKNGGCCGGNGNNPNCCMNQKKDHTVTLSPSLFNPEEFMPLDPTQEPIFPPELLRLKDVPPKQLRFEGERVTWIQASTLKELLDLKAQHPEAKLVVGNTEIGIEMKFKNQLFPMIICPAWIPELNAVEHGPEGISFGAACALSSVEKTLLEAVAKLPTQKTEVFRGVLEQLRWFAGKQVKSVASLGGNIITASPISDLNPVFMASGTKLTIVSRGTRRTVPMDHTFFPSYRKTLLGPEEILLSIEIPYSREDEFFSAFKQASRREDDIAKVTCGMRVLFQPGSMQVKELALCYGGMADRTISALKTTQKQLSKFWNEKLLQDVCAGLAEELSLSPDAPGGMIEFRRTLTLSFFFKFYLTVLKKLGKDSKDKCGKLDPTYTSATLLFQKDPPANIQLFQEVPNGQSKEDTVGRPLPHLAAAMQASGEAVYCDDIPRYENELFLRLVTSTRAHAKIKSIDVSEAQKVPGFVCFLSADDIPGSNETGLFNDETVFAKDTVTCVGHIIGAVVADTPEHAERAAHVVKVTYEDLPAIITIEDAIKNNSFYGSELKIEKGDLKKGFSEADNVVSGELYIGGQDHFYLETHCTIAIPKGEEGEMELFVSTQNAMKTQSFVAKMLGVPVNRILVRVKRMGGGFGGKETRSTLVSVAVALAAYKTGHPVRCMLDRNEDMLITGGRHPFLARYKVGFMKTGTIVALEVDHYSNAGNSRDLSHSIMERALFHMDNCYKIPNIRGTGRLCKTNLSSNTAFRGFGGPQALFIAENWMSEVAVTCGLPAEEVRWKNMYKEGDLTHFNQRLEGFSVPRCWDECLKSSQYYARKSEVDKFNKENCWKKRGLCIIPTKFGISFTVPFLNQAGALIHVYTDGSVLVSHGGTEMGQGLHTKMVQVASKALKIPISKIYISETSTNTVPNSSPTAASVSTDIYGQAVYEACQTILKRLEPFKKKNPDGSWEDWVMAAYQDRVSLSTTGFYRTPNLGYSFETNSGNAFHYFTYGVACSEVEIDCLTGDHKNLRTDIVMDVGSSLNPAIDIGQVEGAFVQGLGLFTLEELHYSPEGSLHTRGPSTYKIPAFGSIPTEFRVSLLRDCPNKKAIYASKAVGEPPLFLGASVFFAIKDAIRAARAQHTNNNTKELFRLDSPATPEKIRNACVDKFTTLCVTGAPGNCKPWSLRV

The term IC50 denotes the concentration that gives 50% inhibition. Read a high IC50 as a need for much substance. The compound `Oc1cc(O)c2c(c1)O[C@H](c1ccc(O)c(O)c1)[C@H](O)[C@H]2c1c(O)cc(O)c2c1O[C@H](c1ccc(O)c(O)c1)[C@@H](O)C2` [procyanidin B1, (−)-epicatechin-(4β,8)-(+)-catechin] showed an IC50 of 92.5 µM.
